Reference: article PMC3787718 (Structure (London, England : 1993), 2013)
pIC50: −log10 of the molar value.

Biological target: T1, GLIC (Gloeobacter violaceus ligand-gated ion channel) (Gloeobacter violaceus, UniProt Q7NDN8)
T1 sequence (Q7NDN8 44-359): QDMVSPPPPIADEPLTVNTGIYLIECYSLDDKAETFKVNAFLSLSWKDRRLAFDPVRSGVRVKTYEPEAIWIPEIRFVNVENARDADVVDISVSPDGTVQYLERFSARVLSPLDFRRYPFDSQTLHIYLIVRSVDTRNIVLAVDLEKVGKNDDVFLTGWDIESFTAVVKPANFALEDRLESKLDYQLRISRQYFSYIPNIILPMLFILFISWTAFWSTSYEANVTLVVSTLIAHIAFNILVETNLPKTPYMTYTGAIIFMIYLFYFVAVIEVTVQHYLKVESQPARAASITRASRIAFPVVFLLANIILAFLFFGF
Assay: two-electrode voltage clamp in Xenopus oocytes, inhibition of proton-activated
Format: cell-based

## FC(F)OC(F)C(F)(F)F (stereo not shown) [DSF, desflurane]
  pIC50: 2.96
